Laboratory results taken from US11072614B2, “Polymorphs of sepiapterin and salts thereof” (PTC Therapeutics MP, Inc., priority 2016, dated 2021).

Tests used:
Format in all cases: physicochemical
[1] = Storage stability study of solid forms, form change by XRD (Example 11); conditions: 100% RH
Method: For X-ray powder diffraction analysis, a PANalytical Empyrean X-ray powder diffractometer was used. The parameters are as follows:
(§1) Form A and F samples were placed in chambers with silica gel to remove water (the relative humidity was measured to be ˜10% RH) at different temperatures. Form D samples were placed in chambers with water (relative humidity was estimated to be ˜100% RH) at different temperatures.
(§2) The HPLC purities and XRD patterns were obtained for each of Form A/F/D samples stored at various temperatures.

[2] = Storage stability of polymorphs, HPLC sepiapterin and impurity profile (Example 12); parameters: Impurity RRT 1.06 / Impurity RRT 1.08 / Impurity RRT 1.17 / Impurity RRT 1.21 / Impurity RRT 1.25 / Impurity RRT 0.62 / Impurity RRT 0.89 / Impurity RRT 0.95 / Impurity RRT 0.60: unit not given here
Method: Samples of sepiapterin free base polymorph Forms D, F, and A were stored at room temperature (RT), 35° C., and 50° C. The samples were analyzed by HPLC at 1 week and 4 week intervals. The HPLC parameters were as follows: [table]

[3] = Storage stability study of solid forms, HPLC purity (Example 11); conditions: 100% RH
Method: as §1, §2

[4] = Physical form stability to grinding and sieving (XRD before and after)
Method: A sample of sepiapterin free base was obtained commercially. […] The sepiapterin sample contained particles with an average particle size over 100 μm. The XRD pattern was determined before and after grinding to reduce the particle size such that it passes through a 140 mesh screen. This polymorph of sepiapterin free base is referred to as Form A herein.

C[C@H](O)C(=O)C1=Nc2c(nc(N)[nH]c2=O)NC1 [Form D, sepiapterin]
Form change ([1]; 35° C., storage 1 week): No
Form change ([1]; 35° C., storage 4 weeks): No
Form change ([1]; 50° C., storage 1 week): No
Form change ([1]; 50° C., storage 4 weeks): No
Form change ([1]; RT, storage 1 week): No
Form change ([1]; RT, storage 4 weeks): No
Impurity RRT 0.62 ([2]; 35° C./100% RH, 1 w): <0.05
Impurity RRT 0.95 ([2]; 35° C./100% RH, 1 w): 0.86
Impurity RRT 1.08 ([2]; 35° C./100% RH, 1 w): 0.14
Impurity RRT 1.17 ([2]; 35° C./100% RH, 1 w): 0.17
Sepiapterin RRT 1.00 (amount of sepiapterin) ([2]; 35° C./100% RH, 1 w): 98.83%
Impurity RRT 0.62 ([2]; 35° C./100% RH, 4 w): 0.09
Impurity RRT 0.95 ([2]; 35° C./100% RH, 4 w): 1.04
Impurity RRT 1.08 ([2]; 35° C./100% RH, 4 w): <0.05
Impurity RRT 1.17 ([2]; 35° C./100% RH, 4 w): 0.17
Sepiapterin RRT 1.00 (amount of sepiapterin) ([2]; 35° C./100% RH, 4 w): 98.70%
Impurity RRT 0.62 ([2]; 50° C./100% RH, 1 w): 0.08
Impurity RRT 0.95 ([2]; 50° C./100% RH, 1 w): 1.05
Impurity RRT 1.08 ([2]; 50° C./100% RH, 1 w): 0.26
Impurity RRT 1.17 ([2]; 50° C./100% RH, 1 w): 0.16
Sepiapterin RRT 1.00 (amount of sepiapterin) ([2]; 50° C./100% RH, 1 w): 98.45%
Impurity RRT 0.62 ([2]; 50° C./100% RH, 4 w): 0.14
Impurity RRT 0.95 ([2]; 50° C./100% RH, 4 w): 2.03
Impurity RRT 1.08 ([2]; 50° C./100% RH, 4 w): <0.05
Impurity RRT 1.17 ([2]; 50° C./100% RH, 4 w): 0.18
Sepiapterin RRT 1.00 (amount of sepiapterin) ([2]; 50° C./100% RH, 4 w): 97.65%
Impurity RRT 1.08 ([2]; Initial): <0.05
Impurity RRT 1.17 ([2]; Initial): 0.17
Impurity RRT 0.62 ([2]; Initial, listed as Polymorph D): <0.05
Impurity RRT 0.95 ([2]; Initial, listed as Polymorph D): 0.69
Sepiapterin RRT 1.00 (amount of sepiapterin) ([2]; Initial, listed as Polymorph D): 99.14%
Sepiapterin RRT 1.00 (amount of sepiapterin) ([2]; Initial, listed as polymorph D): 99.14%
Impurity RRT 0.62 ([2]; RT/100% RH, 1 w): <0.05
Impurity RRT 0.95 ([2]; RT/100% RH, 1 w): 0.83
Impurity RRT 1.08 ([2]; RT/100% RH, 1 w): <0.05
Impurity RRT 1.17 ([2]; RT/100% RH, 1 w): 0.16
Sepiapterin RRT 1.00 (amount of sepiapterin) ([2]; RT/100% RH, 1 w): 99.01%
Impurity RRT 0.62 ([2]; RT/100% RH, 4 w): 0.09
Impurity RRT 0.95 ([2]; RT/100% RH, 4 w): 0.81
Impurity RRT 1.08 ([2]; RT/100% RH, 4 w): <0.05
Impurity RRT 1.17 ([2]; RT/100% RH, 4 w): 0.17
Sepiapterin RRT 1.00 (amount of sepiapterin) ([2]; RT/100% RH, 4 w): 98.92%
stability compared with polymorph A (in words) ([2]; storage at RT, 35° C., 50° C., 1 w and 4 w): significantly greater stability
% of Initial ([3]; 35° C., storage 1 week): 99.7%
Purity (area %) ([3]; 35° C., storage 1 week): 98.8 area %
% of Initial ([3]; 35° C., storage 4 weeks): 99.6%
Purity (area %) ([3]; 35° C., storage 4 weeks): 98.7 area %
% of Initial ([3]; 50° C., storage 1 week): 99.3%
Purity (area %) ([3]; 50° C., storage 1 week): 98.5 area %
% of Initial ([3]; 50° C., storage 4 weeks): 98.5%
Purity (area %) ([3]; 50° C., storage 4 weeks): 97.7 area %
% of Initial ([3]; RT, storage 1 week): 99.9%
Purity (area %) ([3]; RT, storage 1 week): 99.0 area %
% of Initial ([3]; RT, storage 4 weeks): 99.8%
Purity (area %) ([3]; RT, storage 4 weeks): 98.9 area %
physical form stability to grinding and sieving [4]: potential instability
